Measurements from patent publication US10370364B1, “Substituted chromenes for treatment of fibrosis or non-alcoholic steatohepatitis” (OSTEONEUROGEN INC., priority 2018, dated 2019).
Values after ≈ are worked out from the molar mass of the structure shown. Read-outs that look alike come from different tables or passages of the source.

Experiments:
[1] = Concentration of compound in plasma and lung of bleomycin fibrotic mice; assay type: in vivo; conditions: 1 hour after final administration; pirfenidone 100 mpk, Compound 1 10-100 mpk PO
Experimental: The amounts of the compound present in the plasma and lung of each of the sacrificed mice (finally administered with each compound at 1 hour before sacrifice) were measured. […] If it is attempted to formulate the compound of the present invention in various manners, it is expected that the compound of the present invention can effectively treat fibrosis even at lower concentrations.

[2] = Pharmacokinetics in male SD rats (oral and i.v., various formulations); assay type: in vivo, rat
Experimental: To examine the pharmacokinetics of the compound after oral administration, rat models were used.
Male SD rats (weighed 250 to 300 g) were divided into several groups, each consisting of 3 rats, […], after which the amount of the compound present in the plasma was measured with the passage of time. […]
For effective formulation of the compound of the present invention, the pharmacokinetics of various formulations after oral administration were examined according to the same method as described in Experimental Example 2-4 above.

CYP2D6 = CYP2D6 (Homo sapiens, UniProt P10635)
CYP2D6, sequence (P10635 whole entry): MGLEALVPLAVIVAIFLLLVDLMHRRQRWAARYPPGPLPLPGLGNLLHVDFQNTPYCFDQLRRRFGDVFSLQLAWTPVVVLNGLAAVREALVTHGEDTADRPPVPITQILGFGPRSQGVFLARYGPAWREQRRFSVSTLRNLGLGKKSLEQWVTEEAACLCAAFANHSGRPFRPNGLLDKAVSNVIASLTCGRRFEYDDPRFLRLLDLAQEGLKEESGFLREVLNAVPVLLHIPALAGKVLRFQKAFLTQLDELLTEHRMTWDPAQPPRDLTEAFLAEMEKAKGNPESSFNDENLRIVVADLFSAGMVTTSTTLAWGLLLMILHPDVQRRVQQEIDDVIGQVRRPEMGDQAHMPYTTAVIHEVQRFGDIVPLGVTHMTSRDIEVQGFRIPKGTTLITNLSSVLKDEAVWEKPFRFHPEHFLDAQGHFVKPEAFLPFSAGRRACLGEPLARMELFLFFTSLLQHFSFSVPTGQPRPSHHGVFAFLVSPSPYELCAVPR

CYP2C9 [3] = target: T1, CYP2C9 (Homo sapiens, UniProt P11712)
T1 sequence (P11712 whole entry): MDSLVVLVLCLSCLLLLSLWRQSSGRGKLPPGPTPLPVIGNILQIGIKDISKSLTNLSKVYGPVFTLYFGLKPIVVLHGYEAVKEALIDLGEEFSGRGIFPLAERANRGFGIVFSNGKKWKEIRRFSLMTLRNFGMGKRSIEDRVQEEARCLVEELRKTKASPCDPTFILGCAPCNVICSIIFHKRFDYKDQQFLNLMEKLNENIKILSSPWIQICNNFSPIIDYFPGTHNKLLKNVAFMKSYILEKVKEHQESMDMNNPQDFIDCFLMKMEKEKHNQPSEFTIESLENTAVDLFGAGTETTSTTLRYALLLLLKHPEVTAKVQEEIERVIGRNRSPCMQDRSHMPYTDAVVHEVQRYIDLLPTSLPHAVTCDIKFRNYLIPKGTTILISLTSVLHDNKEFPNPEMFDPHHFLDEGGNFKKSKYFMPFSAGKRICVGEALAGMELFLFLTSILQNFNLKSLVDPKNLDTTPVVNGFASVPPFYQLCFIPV

physchem = experiment: physchem
Experimental: The compound of the present invention was added to phosphate buffer (pH 7.4) at a concentration of 1 mg/ml and stirred. After 16 hours, the sample was filtered through a filter, and the supernatant was analyzed by HPLC-UV, thereby determining the content of compound dissolved.

CYP2C9 [4] = target: T1, CYP2C9; experiment: CYP450 inhibition, CYP2C9
Snail = Snail expression in A549 cells by real-time PCR; assay type: cell-based, human; conditions: A549, TGF-β plus compound
Experimental: In addition, in order to examine whether the effect as described above would be attributable to the effect against EMT, the expression patterns of Snail and Vimentin, which are representative markers of EMT, in the cells of each test group, were analyzed by real-time PCR.

[5] = male, SD, plasma, iv, 1 mg/kg, rat, 1 mpk i.v, Formulation Example 1
[6] = male, SD, rat, plasma, po, 10 mg/kg, 10 mpk po, Formulation Example 3, NMP/PEG400/Solutol HS/water vehicle
[7] = male, SD, rat, plasma, po, 10 mg/kg, 10 mpk po, Formulation Example 4, NMP/ethanol/PEG200/saline vehicle
[8] = male, SD, rat, plasma, po, 10 mg/kg, 10 mpk po, Formulation Example 5, in 30% HPCD aqueous solution
[9] = male, SD, rat, plasma, po, 200 mg/kg, 200 mpk po, Formulation Example 2

COc1ccc(-c2cc(=O)c3c(O)c(OC)c(OCCN4CCNC(=O)C4)cc3o2)cc1OC [Compound 1, 4-(2-((2-(3,4-dimethoxyphenyl)-5-hydroxy-6-methoxy-4-oxo-4H-chromen-7-yl)oxy)ethyl)piperazin-2-one]
concentration of the compound in the lung [1]: relatively very low
concentration of the compound in the plasma [1]: relatively very low
plasma profile after oral administration (in words) ([2]; Formulation Example 2 compared to Formulation Example 3, FIG. 25): absorbed rapidly in vivo after oral administration and was maintained in the plasma for a long period of time
MRT inf ([2]; male, SD, plasma, 10 mg/kg, rat, 10 mpk po, Formulation Example 5): 3.2 ± 0.7 h
half-life ([2]; male, SD, plasma, 10 mg/kg, rat, 10 mpk po, Formulation Example 5, read-out: t1/2 (converted)): 1.9 ± 0.6 h
MRT inf ([2]; male, SD, plasma, 200 mg/kg, rat, 200 mpk po, Formulation Example 2): 1.7 ± 0.2 h
half-life ([2]; male, SD, plasma, 200 mg/kg, rat, 200 mpk po, Formulation Example 2, read-out: t½ (converted)): 1.5 ± 0.4 h
MRT inf [2, 5]: 0.4 h
Vd [2, 5]: 3.6 ± 0.25 L/kg
C0 ([2]; male, SD, plasma, iv, 1 mg/kg, rat, 1 mpk i.v, Formulation Example 1 (100% DMSO)): 506 ± 130 ng/mL
clearance ([2]; male, SD, plasma, iv, 1 mg/kg, rat, 1 mpk i.v, Formulation Example 1, read-out: CLP (converted)): 112 mL/min/kg
half-life ([2]; male, SD, plasma, iv, 1 mg/kg, rat, 1 mpk i.v, Formulation Example 1, read-out: t1/2 (converted)): 0.38 ± 0.03 h
AUC(0-inf) ([2]; male, SD, rat, plasma, iv, 1 mg/kg, 1 mpk i.v, Formulation Example 1): 149 ± 3 ng·h/mL
AUC(0-t) ([2]; male, SD, rat, plasma, iv, 1 mg/kg, rat, 1 mpk i.v, Formulation Example 1, read-out: AUC(0-t)): 147 ± 2.2 ng·h/mL
bioavailability ([2]; male, SD, rat, plasma, po, 10 mg/kg, 10 mpk po, Formulation Example 2): 1.4%
bioavailability ([2]; male, SD, rat, plasma, po, 10 mg/kg, 10 mpk po, Formulation Example 3): ~9%
AUC(0-inf) [2, 6]: 155 ± 7.5 ng·h/mL
Tmax [2, 6]: 0.25 ± 0.1 h
bioavailability ([2]; male, SD, rat, plasma, po, 10 mg/kg, 10 mpk po, Formulation Example 4): ~3%
AUC(0-inf) [2, 7]: 46.4 ± 14.1 ng·h/mL
Tmax [2, 7]: 0.25 h
bioavailability ([2]; male, SD, rat, plasma, po, 10 mg/kg, 10 mpk po, Formulation Example 5): ~7%
Cmax ([2]; male, SD, rat, plasma, po, 10 mg/kg, 10 mpk po, Formulation Example 5 (30% (w/v) HPCD aqueous solution)): 393 ± 299 ng/mL
AUC(0-inf) [2, 8]: 1080 ± 327 ng·h/mL
Tmax [2, 8]: 1.3 ± 0.6 h
Cmax ([2]; male, SD, rat, plasma, po, 10 mg/kg, rat, 10 mpk po, Formulation Example 2 (Tween80: 0.5% CMC 1:99)): 22.3 ± 8.9 ng/mL
Tmax ([2]; male, SD, rat, plasma, po, 10 mg/kg, rat, 10 mpk po, Formulation Example 2, in Tween80:0.5% CMC aqueous vehicle): 0.4 ± 0.1 h
AUC(0-t) ([2]; male, SD, rat, plasma, po, 10 mg/kg, rat, 10 mpk po, Formulation Example 2, in Tween80:0.5% CMC aqueous vehicle, read-out: AUC(0-t)): 20.4 ± 6.2 ng·h/mL
Cmax ([2]; male, SD, rat, plasma, po, 10 mg/kg, rat, 10 mpk po, Formulation Example 3 (NMP: PEG400: SOLUTOL HS: water 10:20:20:50)): 62.2 ± 37.5 ng/mL
AUC(0-t) ([2]; male, SD, rat, plasma, po, 10 mg/kg, rat, 10 mpk po, Formulation Example 3, NMP/PEG400/Solutol HS/water vehicle, read-out: AUC(0-t)): 126 ± 19.1 ng·h/mL
Cmax ([2]; male, SD, rat, plasma, po, 10 mg/kg, rat, 10 mpk po, Formulation Example 4 (NMP: ethanol: PEG200: normal saline 5:10:30:55)): 46.7 ± 8.8 ng/mL
AUC(0-t) ([2]; male, SD, rat, plasma, po, 10 mg/kg, rat, 10 mpk po, Formulation Example 4, NMP/ethanol/PEG200/saline vehicle, read-out: AUC(0-t)): 42.5 ± 16 ng·h/mL
AUC(0-t) ([2]; male, SD, rat, plasma, po, 10 mg/kg, rat, 10 mpk po, Formulation Example 5, in 30% HPCD aqueous solution, read-out: AUC(0-t)): 1000 ± 314 ng·h/mL
AUC(0-inf) [2, 9]: 426 ± 67.7 ng·h/mL
Tmax [2, 9]: 1 h
bioavailability [2, 9]: 1.4%
Cmax ([2]; male, SD, rat, plasma, po, 200 mg/kg, rat, 200 mpk po, Formulation Example 2 (Tween80: 0.5% CMC 1:99)): 261 ± 41.4 ng/mL
AUC(0-t) ([2]; male, SD, rat, plasma, po, 200 mg/kg, rat, 200 mpk po, Formulation Example 2, read-out: AUC (0-24)): 420 ± 69.3 ng·h/mL
AUC(0-t) ([2]; male, SD, rat, plasma, po, 200 mg/kg, rat, 200 mpk po, Formulation Example 2, read-out: AUC(0-t)): 420 ± 69.3 ng·h/mL
bioavailability ([2]; male, SD, rat, plasma, po, Formulation Example 2, dose not given): 1.4%
AUC_% Extrap (obs) ([2]; rat, 1 mpk i.v, Formulation Example 1): 1.8 ± 0.5%
AUC_% Extrap (obs) ([2]; rat, 10 mpk po, Formulation Example 5): 7.0 ± 5.2%
absorption after oral administration (in words) ([2]; rat, 200 mpk po, 0.5% CMC and about 1% Tween-80): absorbed rapidly in vivo after oral administration
AUC_% Extrap (obs) ([2]; rat, 200 mpk po, Formulation Example 2): 1.6 ± 0.7%
inhibitory activity against CYP2D6 (in words) (CYP2D6): little or very low inhibitory activity
inhibitory activity against CYP2C9 (in words) (CYP2C9 [3]): slight inhibitory activity
solubility in the buffer (in words) (physchem; pH 7.4): lower than that of caffeine, but higher than that of diethyl stilbesterol
solubility at 16 h (physchem; pH 7.4, aqueous buffer, thermodynamic from solid): 9.59 µg/mL (≈ 20.4 µM)
IC50 (CYP2C9 [4]): 5.54 µM
expression of Snail (Snail): significantly inhibited
